Results reported in ChEMBL document CHEMBL1153108, “Neolignans from Piper kadsura and their anti-neuroinflammatory activity” (Bioorg Med Chem Lett, 2010).
pIC50: −log10 of the molar value. Calls of active or inactive are those of the source. The calls are words filed in the database; no cut-off is given here.

Columns and labels:
BV-2 [1] = experiment: Antineuroinflammatory activity in mouse BV2 cells assessed as inhibition of LPS-induced nitric oxide production at 20 uM after 24 hrs by Griess reagent method; type: functional; details: for inhibition at 20 µM: BV-2, 24 h
BV-2 [2] = experiment: Antineuroinflammatory activity in mouse BV2 cells assessed as inhibition of LPS-induced nitric oxide production after 24 hrs by Griess reagent method; type: functional, cell-based; details: for pIC50: BV-2, 24 h
[3] = Cytotoxicity against mouse BV2 cells by MTT assay; type: cell-based, BV-2; details: read-out: INH
[4] = molecular target: T1, Nitric oxide synthase, inducible (Mus musculus) (UniProt P29477); experiment: Inhibition of iNOS in LPS-stimulated mouse BV2 cells at 25 to 100 uM after 24 hrs by Griess reagent method; type: cell-based; details: BV-2
T1 sequence (whole entry): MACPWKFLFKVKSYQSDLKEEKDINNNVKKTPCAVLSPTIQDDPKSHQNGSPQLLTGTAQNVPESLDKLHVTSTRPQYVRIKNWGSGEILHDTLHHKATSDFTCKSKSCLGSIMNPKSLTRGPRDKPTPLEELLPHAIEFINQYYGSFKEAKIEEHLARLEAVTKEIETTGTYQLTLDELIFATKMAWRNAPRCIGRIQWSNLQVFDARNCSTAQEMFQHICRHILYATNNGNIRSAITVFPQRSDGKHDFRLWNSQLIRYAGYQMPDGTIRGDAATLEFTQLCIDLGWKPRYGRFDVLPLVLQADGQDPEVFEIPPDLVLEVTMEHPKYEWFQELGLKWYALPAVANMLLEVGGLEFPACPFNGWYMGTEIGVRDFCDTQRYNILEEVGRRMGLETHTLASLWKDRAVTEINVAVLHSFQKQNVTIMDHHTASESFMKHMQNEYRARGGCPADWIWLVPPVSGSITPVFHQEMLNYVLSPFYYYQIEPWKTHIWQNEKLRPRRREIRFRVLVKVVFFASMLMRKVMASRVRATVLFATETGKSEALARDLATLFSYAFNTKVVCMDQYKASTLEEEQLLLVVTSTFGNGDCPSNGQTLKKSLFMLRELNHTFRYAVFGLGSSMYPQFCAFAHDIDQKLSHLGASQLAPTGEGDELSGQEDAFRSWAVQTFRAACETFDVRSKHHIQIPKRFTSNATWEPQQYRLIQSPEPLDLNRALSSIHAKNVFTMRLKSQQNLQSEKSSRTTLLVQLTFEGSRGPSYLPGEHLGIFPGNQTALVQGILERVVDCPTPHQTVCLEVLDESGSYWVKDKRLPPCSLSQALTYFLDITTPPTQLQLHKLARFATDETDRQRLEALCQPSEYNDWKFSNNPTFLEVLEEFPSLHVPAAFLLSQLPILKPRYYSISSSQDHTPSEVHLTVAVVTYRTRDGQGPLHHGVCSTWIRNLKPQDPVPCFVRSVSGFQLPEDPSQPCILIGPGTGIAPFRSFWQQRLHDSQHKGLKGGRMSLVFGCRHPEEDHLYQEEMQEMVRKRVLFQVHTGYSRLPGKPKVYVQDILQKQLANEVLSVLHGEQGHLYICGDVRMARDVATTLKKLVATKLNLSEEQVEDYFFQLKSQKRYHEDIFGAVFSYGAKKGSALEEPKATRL

BV-2 [5] = experiment: Inhibition of LPS-induced iNOS expression in mouse BV2 cells at 5 to 20 uM after 6 hrs by Western blot analysis; type: functional, cell-based
[6] = Effect on nitric oxide radical scavenging activity in sodium nitroprusside solution assessed as nitric oxide release after 15 mins by Griess reagent method; type: physicochemical; details: 0.25 h

pIC50 (BV-2 [2]) | SMILES | inhibition at 20 µM (BV-2 [1]) [%] | inhibition (BV-2 [1]) | other results
4.77 | C=CCC1=CC(OC)(/C(C)=C/c2ccc3c(c2)OCO3)C(OC)=CC1=O (stereo not given) [FUTOQUINOL] | 55.3 |  | inhibition (BV-2 [2]): Dose-dependent effect
4.77 | CNC(=N)NCCC[C@H](N)C(=O)O [TILARGININE] | 55.3 |  | 
4.34 | C=CCC1=CC(OC)(/C(C)=C/c2ccc(OC)c(OC)c2)C(OC)=CC1=O (stereo not given) [WALLICHININE] | 18.5 |  | 
 | C=CCC1=C[C@]2(OC)C(=CC1=O)O[C@H](c1ccc3c(c1)OCO3)[C@H]2C [DENUDATIN A] |  |  | cytotoxicity [3]: 23.2%
 | C=CCC1=C[C@@]2(OC)C(=CC1=O)O[C@H](c1ccc(OC)c(OC)c1)[C@H]2C [KADSURENONE] |  | inactive | cytotoxicity [3]: 21.3%
 | C=CCC1=C[C@]2(OC)[C@H](C)[C@@H](c3ccc(OC)c(OC)c3)[C@H](C1=O)[C@@H]2OC(C)=O |  | inactive | 
4.48 | C=CCc1ccc(OC)c(OC(C)C(OC(C)=O)c2ccc(OC)c(OC)c2)c1OC (stereo not given) | 27.2 |  | 
 | C=CC[C@]12C(=O)C=C(OC)[C@]3(OC)[C@@H]1[C@]3(C)[C@H]2c1ccc2c(c1)OCO2 |  | inactive | 
4.84 | C=CCC1=CC2=C(OC)[C@H](C1=O)[C@]2(C)[C@H](O)c1ccc2c(c1)OCO2 [PIPERKADSIN C] | 60.8 |  | Activity [4]: Active; Activity (BV-2 [5]): inactive; inhibition (BV-2 [2]): Dose-dependent effect; Activity [6]: Not Active
